Test results taken from patent US8975245B2, “Anaesthetic formulation” (Drawbridge Pharmaceuticals Pty Ltd, priority 2010, dated 2015).

Legend:
[1] = for time of continuous stirring until it went into solution: 10 mg/ml in 13% w/v sulfobutyl ether β-cyclodextrin in 0.9% saline; for dissolution at a concentration of 10 mg/ml: 13% w/v sulfobutyl ether β-cyclodextrin in 0.9% saline
rats = test: Effect of Captisol premedication on the death rate of Althesin
[2] = SBECD7 (13% solution) premed 5.25 mls/kg 60 s before Althesin @ 16 x AD95 (52.5 mg/kg alphaxalone iv), 10 rats

| Molecule | time of continuous stirring until it went into solution [1] [h] | dissolution at a concentration of 10 mg/ml [1] | n did not die (rats; [2]) | n died (rats; [2]) | effect on mortality caused by alphaxalone as Althesin (rats; premedication 60 s before 52.5 mg/kg alphaxalone as Althesin) |
| --- | --- | --- | --- | --- | --- |
| C[C@]12CC[C@@H](O)C[C@@H]1CC[C@H]1[C@@H]3CC[C@H](C(=O)CO)[C@@]3(C)CC(=O)[C@@H]12 [alphadolone] | 4 | dissolved completely |  |  |  |
| CC(=O)[C@H]1CC[C@H]2[C@@H]3CC[C@@H]4C[C@H](O)CC[C@]4(C)[C@H]3CC[C@]12C [pregnanolone] | 4 | dissolved incompletely |  |  |  |
| (7) sulfobutyl ether β-cyclodextrin [SBECD7] |  |  | 8 | 2 | statistically and clinically significant reduction in the mortality |
